Assays:
[1] = Inhibitory concentration required for the Src dependent cell proliferation using Src-transformed fibroblasts
[2] = biological target: Proto-oncogene tyrosine-protein kinase Src (Homo sapiens, UniProt P12931); assay: Inhibitory concentration against Src protein tyrosine kinase
[3] = biological target: Cyclin-dependent kinase 4 (Homo sapiens) (UniProt P11802); assay: Inhibition of Cyclin-dependent kinase 4 (CDK4) at ug/mL; conditions: concentration not given here
[4] = biological target: Epidermal growth factor receptor (Homo sapiens, UniProt P00533); assay: Inhibition of Epidermal growth factor receptor
[5] = biological target: Dual specificity mitogen-activated protein kinase kinase 1 (Homo sapiens, UniProt Q02750); assay: Inhibition of Dual specificity mitogen-activated protein kinase kinase, MEK
Chain of Dual specificity mitogen-activated protein kinase kinase 1 (Q02750 whole entry): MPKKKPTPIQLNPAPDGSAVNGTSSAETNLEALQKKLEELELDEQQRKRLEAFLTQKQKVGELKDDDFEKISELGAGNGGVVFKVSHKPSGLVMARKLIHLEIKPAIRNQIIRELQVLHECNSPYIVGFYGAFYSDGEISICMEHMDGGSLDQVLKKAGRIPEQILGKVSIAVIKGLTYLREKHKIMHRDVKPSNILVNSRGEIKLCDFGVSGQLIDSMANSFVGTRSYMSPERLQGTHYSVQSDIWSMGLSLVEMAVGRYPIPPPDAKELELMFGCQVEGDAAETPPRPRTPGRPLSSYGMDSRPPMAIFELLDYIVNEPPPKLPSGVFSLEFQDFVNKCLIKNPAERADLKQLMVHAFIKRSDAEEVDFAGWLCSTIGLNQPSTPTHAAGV

Chain of Proto-oncogene tyrosine-protein kinase Src (P12931 2-536 limits assumed): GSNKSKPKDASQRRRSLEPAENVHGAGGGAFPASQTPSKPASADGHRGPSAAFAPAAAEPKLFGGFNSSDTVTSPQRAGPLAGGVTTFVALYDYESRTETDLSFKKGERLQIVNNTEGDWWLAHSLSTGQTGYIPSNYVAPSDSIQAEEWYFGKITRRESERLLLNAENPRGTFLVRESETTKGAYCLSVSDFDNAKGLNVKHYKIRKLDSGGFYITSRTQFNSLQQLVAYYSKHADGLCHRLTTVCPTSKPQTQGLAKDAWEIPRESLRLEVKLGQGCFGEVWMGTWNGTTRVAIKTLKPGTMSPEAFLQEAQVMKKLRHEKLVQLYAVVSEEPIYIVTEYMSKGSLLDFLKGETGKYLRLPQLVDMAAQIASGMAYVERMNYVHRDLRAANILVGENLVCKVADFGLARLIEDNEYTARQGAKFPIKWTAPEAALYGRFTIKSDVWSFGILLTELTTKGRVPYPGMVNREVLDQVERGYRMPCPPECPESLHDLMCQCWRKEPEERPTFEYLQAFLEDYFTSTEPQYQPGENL
Chain of Epidermal growth factor receptor (P00533 whole entry): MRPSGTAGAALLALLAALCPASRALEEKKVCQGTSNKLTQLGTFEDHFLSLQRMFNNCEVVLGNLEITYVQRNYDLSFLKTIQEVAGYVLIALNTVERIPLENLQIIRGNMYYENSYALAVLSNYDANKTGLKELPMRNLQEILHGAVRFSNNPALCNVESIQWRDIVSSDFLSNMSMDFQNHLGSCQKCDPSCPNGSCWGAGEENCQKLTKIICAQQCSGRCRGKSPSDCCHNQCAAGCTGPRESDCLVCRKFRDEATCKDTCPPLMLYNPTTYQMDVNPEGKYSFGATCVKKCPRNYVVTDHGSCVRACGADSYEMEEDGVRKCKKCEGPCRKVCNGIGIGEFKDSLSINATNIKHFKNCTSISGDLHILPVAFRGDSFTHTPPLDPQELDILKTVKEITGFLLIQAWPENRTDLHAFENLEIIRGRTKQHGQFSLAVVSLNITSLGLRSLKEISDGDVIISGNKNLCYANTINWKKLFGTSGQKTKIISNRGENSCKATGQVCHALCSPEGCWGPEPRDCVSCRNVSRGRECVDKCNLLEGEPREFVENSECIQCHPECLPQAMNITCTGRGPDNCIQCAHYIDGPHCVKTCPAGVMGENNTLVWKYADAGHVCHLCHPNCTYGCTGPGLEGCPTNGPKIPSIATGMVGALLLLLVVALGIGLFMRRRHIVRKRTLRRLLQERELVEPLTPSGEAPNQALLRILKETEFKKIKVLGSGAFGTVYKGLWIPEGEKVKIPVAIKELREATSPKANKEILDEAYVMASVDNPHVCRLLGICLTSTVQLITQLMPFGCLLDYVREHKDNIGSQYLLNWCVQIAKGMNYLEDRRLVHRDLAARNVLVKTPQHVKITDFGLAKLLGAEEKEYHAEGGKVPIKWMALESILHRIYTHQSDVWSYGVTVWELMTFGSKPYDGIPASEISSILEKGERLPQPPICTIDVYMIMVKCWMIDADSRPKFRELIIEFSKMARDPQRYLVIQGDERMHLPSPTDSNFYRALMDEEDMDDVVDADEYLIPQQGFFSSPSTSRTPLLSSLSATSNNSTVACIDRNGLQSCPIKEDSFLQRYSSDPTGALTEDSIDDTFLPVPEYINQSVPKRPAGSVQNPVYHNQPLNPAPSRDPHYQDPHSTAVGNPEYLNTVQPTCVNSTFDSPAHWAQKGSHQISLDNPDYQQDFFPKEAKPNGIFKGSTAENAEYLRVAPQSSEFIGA
Chain of Cyclin-dependent kinase 4 (Homo sapiens) (P11802 whole entry): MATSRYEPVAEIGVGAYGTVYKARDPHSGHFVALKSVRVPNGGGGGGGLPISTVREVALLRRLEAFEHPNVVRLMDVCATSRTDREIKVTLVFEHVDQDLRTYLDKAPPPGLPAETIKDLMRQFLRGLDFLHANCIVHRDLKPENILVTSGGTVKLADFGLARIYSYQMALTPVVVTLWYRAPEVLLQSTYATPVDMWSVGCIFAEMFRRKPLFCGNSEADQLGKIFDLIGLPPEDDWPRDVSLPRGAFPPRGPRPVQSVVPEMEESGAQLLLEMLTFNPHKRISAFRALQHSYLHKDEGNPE

Structure (SMILES) | IC50 [1] | IC50 [2] | inhibition [3] | IC50 [4] | IC50 [5]
CCN1CCN(CCc2ccc(-c3ccc4c(Nc5cc(OC)c(Cl)cc5Cl)c(C#N)cnc4c3)cc2)CC1 | 1900 nM | 3.7 nM |  |  | 
COc1cc(Nc2c(C#N)cnc3cc(-c4ccc(CN5CCOCC5)cc4)c(OC)cc23)c(Cl)cc1Cl | 1500 nM | 15 nM |  |  | 
COc1cc(Nc2c(C#N)cnc3cc(-c4ccc(CCN5CCOCC5)cc4)ccc23)c(Cl)cc1Cl | 1000 nM | 14 nM |  |  | 
COc1cc(Nc2c(C#N)cnc3cc(-c4ccc(CN5CCOCC5)cc4)ccc23)c(Cl)cc1Cl | 520 nM | 3.3 nM | 10% | 3000 nM | 280 nM
COc1cc(Nc2c(C#N)cnc3cc(-c4cccc(CN5CCOCC5)c4)c(OC)cc23)c(Cl)cc1Cl | 8100 nM | 150 nM |  |  | 
COc1cc(Nc2c(C#N)cnc3cc(-c4ccc(CN5CCN(CCO)CC5)cc4)ccc23)c(Cl)cc1Cl | 71 nM | 4.7 nM |  |  | 
COc1cc(Nc2c(C#N)cnc3cc(-c4cccc(CN5CCN(C)CC5)c4)ccc23)c(Cl)cc1Cl | 2800 nM | 14 nM |  |  | 
COc1cc(Nc2c(C#N)cnc3cc(-c4cccc(CCN5CCOCC5)c4)c(OC)cc23)c(Cl)cc1Cl | 12000 nM | 74 nM |  |  | 
CCN1CCN(Cc2ccc(-c3ccc4c(Nc5cc(OC)c(Cl)cc5Cl)c(C#N)cnc4c3)cc2)CC1 | 960 nM | 3 nM |  |  | 
CCN1CCN(Cc2ccc(-c3cc4ncc(C#N)c(Nc5cc(OC)c(Cl)cc5Cl)c4cc3OC)cc2)CC1 | 2000 nM | 7 nM |  |  | 
COc1cc(Nc2c(C#N)cnc3cc(-c4cccc(CCN5CCOCC5)c4)ccc23)c(Cl)cc1Cl | 3200 nM | 29 nM |  |  | 
COc1cc(Nc2c(C#N)cnc3cc(-c4ccc(CCN5CCOCC5)cc4)c(OC)cc23)c(Cl)cc1Cl | 1300 nM | 11 nM |  |  | 
COc1cc(Nc2c(C#N)cnc3cc(OCCCN4CCN(C)CC4)c(OC)cc23)c(Cl)cc1Cl [BOSUTINIB] | 100 nM |  |  |  | 
COc1cc(Nc2c(C#N)cnc3cc(-c4cccc(CN5CCOCC5)c4)ccc23)c(Cl)cc1Cl | 3900 nM | 28 nM |  |  | 
COc1cc(Nc2c(C#N)cnc3cc(-c4ccccc4CN4CCOCC4)ccc23)c(Cl)cc1Cl | > 10000 nM | 4000 nM |  |  | 

Source: ChEMBL document CHEMBL1134917, “Substituted 4-anilino-7-phenyl-3-quinolinecarbonitriles as Src kinase inhibitors” (Bioorg Med Chem Lett, 2002)
